Test results taken from patent US20240327359A1, “3-ISOXAZOLIDINONE COMPOUND, PREPARATION METHOD, HERBICIDAL COMPOSITION AND APPLICATION THEREOF” (QINGDAO KINGAGROOT CHEMICAL COMPOUND CO., LTD., priority 2021, published 2024).

Experiments:
Format in all cases: in vivo
[1] = test system: rice; assay: Post-emergence stage, crop damage; details: 720 g a.i./ha, 3 weeks after application
Source text: (§1) The activity level criteria for plant damage (i.e., growth control rate) are as follows:
(§2) The above growth control rates are fresh weight control rates.
(§3) Monocotyledonous and dicotyledonous weed seeds (Descurainia sophia, Capsella bursa-pastoris, Abutilon theophrasti, Galium aparine, Stellaria media, Lithospermum arvense, Rorippa indica, Alopecurus aequalis, Alopecurus japonicus, Eleusine indica, Beckmannia syzigachne, Sclerochloa dura, Phleum paniculatum, Veronica didyma, Bromus japonicus, Aegilops tauschii, Phalaris arundinacea, Amaranthus retroflexus, Chenopodiaceae, Commelina communis, Sonchus arvensis, Convolvulus arvensis, Cirsium setosum, Solanumnigrum, Acalypha australis, Digitaria sanguinalis, Echinochloa crusgalli, Setaria viridis, Setaria glauca, Leptochloa chinensis, Monochoria vaginalis, Sagittaria trifolia, Scirpus juncoides, Cyperus rotundus, Cyperus iria, Cyperus difformis, Fimbristylis, Portulaca oleracea, Xanthium sibiricum, Pharbitis nil, Conyza Canadensis, etc.) and major crop seeds (wheat, corn, rice, soybean, cotton, oilseed rape, millet, sorghum, potato, sesame, ricinus, etc.) were placed in plastic pots filled with soil, then covered with 0.5-2 cm of soil, allowed to grow in a good greenhouse environment. Two weeks after sowing, the test plants were treated in the 2-3 leaf stage. The tested compounds of the present invention were respectively dissolved in acetone, then added with Tween 80 and 1.5 liter/ha of emulsifiable concentrate of methyl oleate as synergist, diluted with a certain amount of water to obtain a solution of a certain concentration, and sprayed by a spray tower onto the plants. After the application, the plants were cultured for 3 weeks in the greenhouse, and then the experimental results of the weeding were recorded. The doses of the used compounds were 45, 90, 180, 360, 720 g a.i./ha, and the averages were obtained from three replicates.

[2] = test system: wheat; assay: Post-emergence stage, crop damage; details: 720 g a.i./ha, 3 weeks after application
Source text: as §1, §2, §3

[3] = test system: Amaranthus retroflexus; assay: Activity test of the compositions, post-emergence treatment by foliage spray; details: foliage (F)
Protocol: (§4) The desired active ingredient B was purchased from a reagent company or synthesized by a known method. The technical materials were all dissolved in acetone and diluted with an aqueous solution containing 0.10% emulsifier Tween-80 which were to be used immediately after dilution.
(§5) Weeds were cultivated by a pot culture method. […] Weed seeds with plump and uniform grains were selected, soaked in lukewarm water at 25° C. for 6 hours, and germinated in a 28° C. biochemical incubator (in darkness). The weed seeds that had just germinated were evenly placed on the surface of the soil and then covered with 0.5-1 cm soil according to the sizes of seeds.
(§6) The culture was carried out in a controllable sunlight greenhouse at 20 to 30° C., in natural light, and with relative humidity of 57% to 72%.
(§7) Each treatment was repeated 4 times. Four pots with 20 weed seeds per pot were treated each time.
(§8) The agents were used for only once in total in the experiment. In the stage of 1.5-2 leaves, the weeds were thinned out to maintain 10 weeds per pot. Ten weeds were kept in each treatment, then continued to be cultured until Echinochloa crus-galli var. zelayensis reached the stage of 2-3 leaves, Cirsium setosum reached the stage of 5-6 leaves, Galium aparine reached the stage of 3-4 whorl leaves, Amaranthus retroflexus reached the stage of 3-5 leaves, Echinochloa crusgalli, Lolium multiflorum and Digitaria sanguinalis reached the stage of 3 leaves with one leaf not fully expanding for further treatment.
(§9) The well-cultured test materials were evenly placed on a platform with an area of 0.5 m^2, and solution of agents was sprayed on the stems and leaves thereof by the 3WP-2000-type walking spray tower at a dosage of 450 kg/ha and at a spray pressure of 0.3 MPa. After all the solution was sprayed, the valve was closed. After 30 seconds, the door of the spray tower was opened, and the nutritional bowl was taken out. Then the valve was opened, and the spray tube was cleaned by spraying 50 ml of water. After the treatment, the weeds were routinely cultured in a greenhouse.
(§10) A method for investigating absolute numbers was employed. Whole seedlings of survival weeds were cut off with a blade along the soil surface, and the fresh weight of the weeds was weighed with an analytical balance. For dead weeds, the fresh weight thereof was zero.
(§11) The investigation was performed 21 days after the treatment for only once in total.

[4] = test system: Cirsium setosum; assay: as above; details: foliage (F), A 32 g a.i./mu
Protocol: as §4, §5, §6, §7, §8, §9, §10, §11

[5] = test system: Digitaria sanguinalis; assay: as above
Protocol: as §4, §5, §6, §7, §8, §9, §10, §11

[6] = test system: Echinochloa crus-galli var. zelayensis; assay: as above; details: Echinochloa crusgalli var. zelayensis; foliage (F); A 16 g a.i./mu
Protocol: as §4, §5, §6, §7, §8, §9, §10, §11

[7] = test system: Echinochloa crusgalli; assay: as above; details: foliage (F), A 16 g a.i./mu
Protocol: as §4, §5, §6, §7, §8, §9, §10, §11

[8] = test system: Lolium multiflorum; assay: as above; details: foliage (F), A 16 g a.i./mu
Protocol: as §4, §5, §6, §7, §8, §9, §10, §11

[9] = test system: weeds; assay: Activity test of the compositions, soil sealing treatment
Procedure, shortened: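 Pre-emergence soil spray at 450 kg/ha, 0.3 MPa, applied 72 h after sowing pre-germinated seeds, 20 seeds per pot, 4 pots, 4 repeats; actives in acetone diluted with 0.10% Tween-80. Greenhouse, 20 to 30° C; surviving weed fresh weight measured 21 days after treatment.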

CC1(C)CON(Cc2ccc(Cl)cc2Br)C1=O [Compound 1]
plant damage level (growth control rate) on crop, post-emergence stage [1]: 1 (Level 1: growth control rate is greater than or equal to 5% and less than 20%) | plant damage level (growth control rate) on crop, post-emergence stage [2]: 1 (Level 1: growth control rate is greater than or equal to 5% and less than 20%) | Control effect (%) of A applied alone (A) ([3]; A 8 g a.i./mu): 36.7% | Control effect (%) of A applied alone (A) ([3]; A 16 g a.i./mu): 36.7% | Control effect (%) of A applied alone (A) [4]: 64.2% | Control effect (%) of A applied alone (A) ([5]; foliage (F), A 16 g a.i./mu): 42.3% | Control effect (%) of A applied alone (A) ([5]; foliage treatment (F), A at 16 g a.i./mu, fresh weight inhibition 21 days after treatment): 42.3% | Control effect (%) of A applied alone (A) [6]: 43.6% | Control effect (%) of A applied alone (A) [7]: 46.2% | Control effect (%) of A applied alone (A) [8]: 56.7% | Control effect (%) of A applied alone (A) ([9]; Alopecurus japonicus, soil (S), A 8 g a.i./mu): 39.4% | Control effect (%) of A applied alone (A) ([9]; Amaranthus retroflexus, soil (S), A 8 g a.i./mu): 37.3% | Control effect (%) of A applied alone (A) ([9]; Commelina communis, soil (S), A 8 g a.i./mu): 44.1% | Control effect (%) of A applied alone (A) ([9]; Cyperus difformis, soil (S), A 8 g a.i./mu): 34.5% | Control effect (%) of A applied alone (A) ([9]; Digitaria sanguinalis, soil (S), A 8 g a.i./mu): 40.3% | Control effect (%) of A applied alone (A) ([9]; Echinochloa crusgalli, soil (S), A 8 g a.i./mu): 50.7% | Control effect (%) of A applied alone (A) ([9]; Echinochloa crusgalli, soil treatment (S), A at 8 g a.i./mu, fresh weight inhibition 21 days after treatment): 50.7% | Control effect (%) of A applied alone (A) ([9]; Galium aparine, soil (S), A 8 g a.i./mu): 37.2% | Control effect (%) of A applied alone (A) ([9]; Lolium multiflorum, soil (S), A 8 g a.i./mu): 53.2% | Control effect (%) of A applied alone (A) ([9]; Potamogeton distinctus, soil (S), A 8 g a.i./mu): 35.9% | Control effect (%) of A applied alone (A) ([9]; Veronica didyma, soil (S), A 8 g a.i./mu): 48.9%
